Laboratory results from patent publication US12053513B2, “Cancer-specific T-cell receptors” (UNIVERSITY COLLEGE CARDIFF CONSULTANTS LTD., priority 2018, dated 2024).

Key:
Type in all cases: cell-based, human
[1] = system: CD8+ T-cells from HLA A2+ healthy donors; test: Priming of CD8+ T-cells from healthy donors, tetramer staining; settings: three healthy donors, tetramers, compared to WT peptides
Description: To generate T-cell peptide lines, CD8 T-cells were purified from the PBMCs of HLA A2+ donors using CD8 microbeads according to the manufacturer's instructions (Miltenyi Biotech, Bergisch Gladbach, Germany). Purified CD8 cells (3×10^6) were co-incubated with autologous CD8neg cells (6-8×10^6) in 24 well plates in 2 mL of T-cell media, but with no IL-15. 25 μM of each peptide was used. The cultures had 50% of the media changed thrice weekly. Tetramer staining was performed as above, using 500,000 cells per tube. Each T-cell line was used in an IFNγ enzyme linked immunosorbent spot (ELISpot) assay with cell lines MDA-MB-231, melanoma MM909.24 and Saos-2. 50,000 T-cells and 15,000 cancer cells were used per well. Incubation was performed for 48 h, and the assay developed according the manufacturer's instructions (Mabtech, Nacka Strand, Sweden).
CPL assay of CR24 was performed as described above. Candidate peptide agonists were designed using the CR24 CPL and an online algorithm (wsb.warwick.ac.uk/wsbcToolsWebpage/user_cases.php). Priming of CD8 T-cells from healthy donors, tetramer staining and chromium release cytotoxicity assays were performed as described above.

[2] = system: autologous melanoma cells; test: Chromium release cytotoxicity assay of peptide primed T-cell lines; settings: patient 37; compared to WT Melan A peptide primed T-cells
[3] = system: CD8 T-cells from a renal cell carcinoma (RCC) and chronic lymphocytic leukaemia (CLL) patient; test: Priming of CD8 T-cells from RCC and CLL patients, TAPI-0 assay or tetramer staining; settings: primed 28 days
Description: (§1) (FIG. 14A) CD8 T-cells from a renal cell carcinoma (RCC) and chronic lymphocytic leukaemia (CLL) patient were left unprimed or primed with […] (SEQ ID NO: 80) peptide for 28 days. […] (SEQ ID NO: 80) peptide for 28 days.

autologous cancer cells = test: Killing of autologous cancer cells by primed CD8s (RCC and CLL patient); settings: compared to unprimed T-cells
Description: as §1

[4] = system: CD8 T-cells from an acute myeloid leukaemia (AML) patient and two CLL patients; test: Priming of CD8 T-cells from AML and CLL patients, IMP-2 tetramer; settings: primed 28 days, versus unprimed
CLL cells = test: Killing assay with primed T-cells from CLL patient 3; settings: compared to IMP-2 primed CD8s
Description: as §1

| Sequence | priming of Melan A, BST2 and IMP2 T-cells [1] | priming of Melan A, BST2 and IMP2 T-cells ([1]; listed as MTSAIGVLVP) | lysis of autologous melanoma cells by primed T-cells [2] | MTSAIGILPV specific T-cells after priming [3] | killing of autologous cancer cells by primed CD8s (autologous cancer cells) | proportion of IMP-2 specific T-cells after priming [4] | killing of CLL cells by primed T-cells (CLL cells) |
| --- | --- | --- | --- | --- | --- | --- | --- |
| ITSAIGILPV (listed as Homo sapiens) [APL 2] | exhibiting effect across each donor |  |  |  |  |  |  |
| MTSAIGILPV (listed as Homo sapiens) [APL 5] | most effective super-agonist | most effective of the candidate super-agonists at priming | superior lysis | presence | killed more autologous cancer cells than the unprimed T-cells | induced a greater proportion of IMP-2 cells | killed more CLL cells than the IMP-2 primed CD8s |
